Measured values reported in patent US5070210A, “Novel ketenimines as intermediates for insecticides” (ICI Americas Inc., priority 1990, dated 1991).

Assays:
Assay type in all cases: in vivo
[1] = system: Cabbage Looper [Trichoplusia ni (Hubner)]; assay: Cabbage looper insecticidal test; details: second-instar larvae, percent in solution; 3-5 days
Summary of the method: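 Steps: dilute compound in 50-50 acetone-water from 0.1% downward; immerse cotyledon pieces 2-3 s and dry; place in humid petri dishes with five second-instar larvae; record mortality at 3-5 days. Dosage-mortality curves yield LC50 as percent in solution.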

[2] = system: Maize weevil [Sitophilus Zeamais (Motschulsky)]; assay: Maize weevil insecticidal test; details: adult weevils, percent in solution; 48 hours
Experimental: The compounds in Tables 1 and 2 above were tested for insecticidal activity using the following testing procedures. LC50 values, based on the results of these tests and calculated according to dosage-mortality curves, are expressed in Table 3.
Maize weevil [Sitophilus Zeamais (Motschulsky)]:
Test compounds were diluted in a 50:50 acetone:water solution. Four corn seeds [Zea mays (L.)] which had been immersed in test solutions for 2-3 seconds and allowed to dry were placed in containers together with 10 adult weevils. The containers were covered and kept at a temperature of about 25° C. Mortality was recorded after 48 hours. Test concentrations ranged from 0.01% down to that at which 50% mortalilty occurred. The LC50 values are expressed below in Table 3 under the heading "MW" in terms of percent of the test compound in solution.

[3] = system: Tobacco Budworm [Heliothis virescens (Fabricius)] eggs; assay: Tobacco budworm egg test; details: 2-day old eggs, percent in solution
Summary of the method: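 Mortality of dipped eggs served as read-out, recorded after untreated controls hatched and began feeding. Treatments used acetone solutions from 0.1% downward, with eggs incubated at 78° F; LC50 is expressed as percent of compound in the solution.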

[4] = system: Housefly [Musca domestica]; assay: Housefly insecticidal test; details: μg per 25 female flies; mortality after 48 hours
Summary of the method: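 Residual contact test: acetone dilution, 0.01% peanut oil spreader, solvent evaporated; 25 ♀ flies (1-2 d old) per cage; sugar-water plug; 48 h mortality read. LC50 in μg/25 female flies, from dose-mortality curves; top dose 100 μg/25 flies.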

Compound	LC50, CL [1] [%]	LC50, MW [2] [%]	LC50, TBW, E (TBW-E) [3] [%]	LC50, HF [4] [µg]
CC(C)C(=Nc1ccc2c(c1)OCO2)OCc1coc(Cc2ccccc2)c1 [Compound 483]	0.001	> 0.01	0.05	6
CC(C)C(=Nc1ccc(I)c(Cl)c1)OCc1ccc(F)c(Oc2ccc(F)cc2)c1 [Compound 385]	> 0.1	> 0.01	> 0.1	< 100
CC(C)C(=Nc1ccc(OCC(F)(F)F)c(Cl)c1)OCc1cccc(Oc2ccc(F)cc2)c1 [Compound 420]	0.00075	> 0.01	0.05	> 100
CC(C)C(=Nc1ccc(OCC(F)(F)F)c(Cl)c1)OCc1cccc(Oc2ccc(Cl)cc2)c1 [Compound 421]	0.002	> 0.01	< 0.1	> 100
CC(C)C(=Nc1cccc(C(F)(F)F)c1)OCc1cccc(Oc2ccc(Cl)cc2)n1 [Compound 477]	0.0003	0.0076	> 0.1	20
CC(C)C(=Nc1cccc(OC(F)(F)F)c1)OCc1ccc(F)c(Oc2ccccc2)c1 [Compound 437]	0.00075	> 0.01	0.025	< 100
CC(C)C(=Nc1ccc(F)c(Br)c1)OCc1cccc(Oc2ccc(Cl)cc2)c1 [Compound 398]	< 0.1	> 0.01	< 0.1	< 100
CC(C)C(=Nc1cccc(C(F)(F)F)c1)OC(C)c1cccc(Oc2ccccc2)c1 (centres unmarked) [Compound 459]	0.008	> 0.01	0.1	> 100
CC(C)C(=Nc1ccc(Cl)cc1)OCc1cccc(Oc2ccc(Cl)cc2)n1 [Compound 554]	0.00075	> 0.01	0.04	> 100
Fc1ccc(COC(=Nc2ccc(C(F)(F)F)cc2)C2CC2)cc1Oc1ccccc1 [Compound 443]	0.00015	< 0.01	0.017	< 100
CC(C)C(=Nc1ccc(C#N)cc1)OCc1cccc(Oc2ccc(Cl)cc2)c1 [Compound 393]	0.00037	> 0.01	> 0.1	< 100
CC(C)C(=Nc1ccc(Cl)c(C(F)(F)F)c1)OCc1cccc(Oc2ccccc2)n1 [Compound 555]	0.002	> 0.01	> 0.1	< 100
CC(C)C(=Nc1ccc(F)c(I)c1)OCc1cccc(Oc2ccc(F)cc2)c1 [Compound 449]	0.0001	0.0075	0.025	13
CC(C)C(=Nc1ccc(F)c(Cl)c1)OCc1ccnc(Oc2ccccc2)c1 [Compound 510]	0.017	> 0.01	> 0.1	54
CC(C)C(=Nc1ccc(Cl)c(C(F)(F)F)c1)OCc1ccc(F)c(Oc2ccc(F)cc2)c1 [Compound 340]	0.00037	0.0069	0.04	34
CC(C)C(=Nc1ccc(Br)c(Br)c1)OCc1ccc(F)c(Oc2ccccc2)c1 [Compound 384]	> 0.1	> 0.01	0.025	< 100
CC(C)C(=Nc1ccc(C(C)(C)C)cc1)OCc1ccc(F)c(Oc2ccc(Cl)cc2)c1 [Compound 301]	0.008	> 0.01	> 0.1	> 100
Cc1ccc(Oc2cccc(COC(=Nc3ccc(C(C)(C)C)cc3)C(C)C)c2)cc1 [Compound 344]	0.024	> 0.01	> 0.1	> 100
Fc1ccc(COC(=Nc2ccc(C(F)(F)F)cc2)C2CC2)cc1Oc1ccc(Cl)cc1 [Compound 444]	0.00015	> 0.01	0.023	> 100

Compound	LC50, CL [1] [%]	LC50, MW [2] [%]	LC50, TBW, E (TBW-E) [3] [%]	LC50, HF [4] [µg]
Fc1ccc(Oc2cccc(COC(=Nc3cccc(C(F)(F)F)c3)C3CC3)c2)cc1 [Compound 294]	0.017	> 0.01	> 0.1	> 100
CCOc1cccc(N=C(OCc2ccc(F)c(Oc3ccc(F)cc3)c2)C(C)C)c1 [Compound 426]	0.002	> 0.01	> 0.1	> 100
CC(C)C(=Nc1ccc(I)c(Cl)c1)OCc1cccc(Oc2ccc(Cl)cc2)n1 [Compound 471]	0.00018	> 0.01	0.018	< 100
CC(C)C(=Nc1ccc(OCC(F)(F)F)cc1)OCc1cccc(Oc2ccccc2)c1 [Compound 423]	0.002	> 0.01	> 0.1	> 100
CC(C)C(=Nc1ccc(OC(F)(F)F)cc1)OCc1cccc(Oc2ccccc2)n1 [Compound 550]	0.00034	> 0.01	> 0.1	< 100
CC(C)C(=Nc1ccc(C#N)cc1)OCc1ccc(F)c(Oc2ccc(Cl)cc2)c1 [Compound 392]	0.00034	> 0.01	0.039	< 100
CC(C)C(=Nc1cccc(I)c1)OCc1cccc(Oc2ccc(Cl)cc2)c1 [Compound 389]	0.00069	> 0.01	> 0.1	< 100
CCc1ccc(N=C(OCc2cccc(Oc3ccc(F)cc3)c2)C(C)C)cc1Cl [Compound 438]	0.0009	> 0.01	< 0.1	> 100
CC(C)C(=Nc1ccc(F)c(I)c1)OCc1cccc(Oc2ccc(Cl)cc2)c1 [Compound 413]	0.0007	> 0.01	0.04	< 100
CC(C)C(=Nc1cc(F)c(Cl)cc1Cl)OCc1ccc(F)c(Oc2ccc(F)cc2)c1 [Compound 292]	0.00075	> 0.01	0.05	41
CC(C)C(=Nc1cccc(Br)c1)OCc1ccc(F)c(Oc2ccc(Cl)cc2)c1 [Compound 386]	0.0012	> 0.01	> 0.1	< 100
CC(C)C(=Nc1cccc(Cl)c1)OCc1ccc(F)c(Oc2ccc(F)cc2)c1 [Compound 341]	0.0005	> 0.01	0.023	4
CC(C)C(=Nc1c(F)c(F)cc(F)c1F)OCc1cccc(Oc2ccc(F)cc2)c1 [Compound 304]	0.0024	> 0.01	> 0.1	> 100
CC(C)C(=Nc1ccc(OCC(F)(F)F)c(F)c1)OCc1cccc(Oc2ccc(Cl)cc2)c1 [Compound 429]	0.0017	> 0.01	< 0.1	> 100
Cc1ccc(N=C(OCc2cccc(Oc3ccc(F)cc3)c2)C(C)C)cc1Cl [Compound 402]	> 0.1	> 0.01	> 0.1	< 100
CC(C)C(=Nc1cccc(C(F)(F)F)c1)OCc1coc(Cc2ccccc2)c1 [Compound 482]	0.01	> 0.01	> 0.1	36
CC(C)C(=Nc1ccc(C(F)(F)F)c(Br)c1)OCc1ccc(F)c(Oc2ccccc2)c1 [Compound 434]	0.0017	0.009	> 0.1	< 100
CC(C)C(=Nc1ccc(Cl)c(F)c1)OCc1ccc(F)c(Oc2ccc(F)cc2)c1 [Compound 441]	0.000025	0.006	0.016	< 100
CC(C)C(=Nc1cccc(C(F)(F)F)c1)OCc1ccnc(Oc2ccccc2)c1 [Compound 507]	0.002	> 0.01	> 0.1	93
